Experimental data published in ChEMBL document CHEMBL6103617, “Chromene Dimers from Cultures of Basidiomycete Panus similis” (J Nat Prod, 2025).

Tests used:
[1] = test system: NCI-H187; assay: Cytotoxicity against human NCI-H187 cells by resazurin staining based analysis; assay type: functional, cell-based
[2] = test system: MCF7; assay: Cytotoxicity against human MCF7 cells by resazurin staining based analysis; assay type: functional, cell-based
[3] = Cytotoxicity against African green monkey Vero cells by green fluorescent protein-based assay; assay type: toxicity, cell-based; conditions: African green monkey (Chlorocebus sabaeus)
[4] = Antioxidant activity assessed as DPPH radical scavenging activity incubated for 30 min by DPPH assay; assay type: functional

IC50 [4] [µM]	SMILES	IC50 [1] [µM]	IC50 [2] [µM]	IC50 [3] [µM]
> 1900	CC1(C)Oc2ccc(O)cc2C(O)C1O (stereo not given)	9.1	> 240	> 240
> 1800	COc1ccc2c(c1)C(O)C(O)C(C)(C)O2 (stereo not given)	> 230	> 220	220
370	CC1(C)C=Cc2cc3c(cc2O1)O[C@@H]1c2cc(O)c(O)cc2OC(C)(C)[C@@H]1O3 (racemic)	45	66	46
180	COc1cc2c(cc1O)OC(C)(C)C(O)C2 (racemic)	55	> 220	> 220
540	COc1cc2c(cc1O)OC(C)(C)[C@H]1[C@H]3[C@@H](O[C@@H]21)c1cc(OC)c(O)cc1OC3(C)C (racemic)	> 120	> 120	> 120
66	CC1(C)Oc2cc(O)c(O)cc2[C@@H]2O[C@H]3c4cc(O)c(O)cc4OC(C)(C)[C@H]3[C@@H]21 (racemic)	48	> 130	> 130
68	O=C1O[C@H]([C@@H](O)CO)C(O)=C1O [ASCORBIC ACID]			
	COc1cccc2c1C(=O)c1c(O)c3c(c(O)c1C2=O)C[C@@](O)(C(=O)CO)C[C@@H]3O[C@H]1C[C@H](N)[C@H](O)[C@H](C)O1 [DOXORUBICIN]	0.084	12	
	Cc1c2ccncc2c(C)c2c1[nH]c1ccccc12 [ELLIPTECINE]	7.8		> 5.4
	CC/C(=C(\c1ccccc1)c1ccc(OCCN(C)C)cc1)c1ccccc1 [TAMOXIFEN]		23	
